According to the supplement of paper PMC11451515:

System: P12-Ichikawa
Experiment: cell viability relative to DMSO control; higher = less cytotoxic
Settings: 48 h
Outline: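 Before seeding, each leukemia line was adapted for at least four passages in each medium. NOMO1 or SEM cells (500 cells/well) and P12-Ichikawa cells (1000 cells/well) went into 1536-well plates at 5 μl, then received library compounds in DMSO by pin dosing across 11 threefold concentrations, 47 μM to 0.79 nM. Readout was CellTiter-Glo One luminescence after 48 h at 37°C, and viability is given as a per-plate percentage of DMSO wells, with cell-free wells as background.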

[1] = RPMI 5 mM glucose + 10% dialyzed FBS, 0.000781 µM
[2] = RPMI 5 mM glucose + 10% dialyzed FBS, 0.00234 µM
[3] = RPMI 5 mM glucose + 10% dialyzed FBS, 0.00702 µM
[4] = RPMI 5 mM glucose + 10% dialyzed FBS, 0.0211 µM
[5] = RPMI 5 mM glucose + 10% dialyzed FBS, 0.0632 µM
[6] = RPMI 5 mM glucose + 10% dialyzed FBS, 0.19 µM
[7] = RPMI 5 mM glucose + 10% dialyzed FBS, 0.569 µM
[8] = RPMI 5 mM glucose + 10% dialyzed FBS, 1.71 µM
[9] = RPMI 5 mM glucose + 10% dialyzed FBS, 5.12 µM
[10] = RPMI 5 mM glucose + 10% dialyzed FBS, 15.4 µM
[11] = RPMI 5 mM glucose + 10% dialyzed FBS, 46.1 µM
[12] = HPLM + 10% dialyzed FBS, 0.000781 µM
[13] = HPLM + 10% dialyzed FBS, 0.00234 µM
[14] = HPLM + 10% dialyzed FBS, 0.00702 µM
[15] = HPLM + 10% dialyzed FBS, 0.0211 µM
[16] = HPLM + 10% dialyzed FBS, 0.0632 µM
[17] = HPLM + 10% dialyzed FBS, 0.19 µM
[18] = HPLM + 10% dialyzed FBS, 0.569 µM
[19] = HPLM + 10% dialyzed FBS, 1.71 µM
[20] = HPLM + 10% dialyzed FBS, 5.12 µM
[21] = HPLM + 10% dialyzed FBS, 15.4 µM
[22] = HPLM + 10% dialyzed FBS, 46.1 µM
[23] = RPMI 5 mM glucose + 10% FBS, 0.000781 µM
[24] = RPMI 5 mM glucose + 10% FBS, 0.00234 µM
[25] = RPMI 5 mM glucose + 10% FBS, 0.00702 µM
[26] = RPMI 5 mM glucose + 10% FBS, 0.0211 µM
[27] = RPMI 5 mM glucose + 10% FBS, 0.0632 µM
[28] = RPMI 5 mM glucose + 10% FBS, 0.19 µM
[29] = RPMI 5 mM glucose + 10% FBS, 0.569 µM
[30] = RPMI 5 mM glucose + 10% FBS, 1.71 µM
[31] = RPMI 5 mM glucose + 10% FBS, 5.12 µM
[32] = RPMI 5 mM glucose + 10% FBS, 15.4 µM
[33] = RPMI 5 mM glucose + 10% FBS, 46.1 µM

SMILES | cell viability [1] | cell viability [2] | cell viability [3] | cell viability [4] | cell viability [5] | cell viability [6] | cell viability [7] | cell viability [8] | cell viability [9] | cell viability [10] | cell viability [11] | cell viability [12] | cell viability [13] | cell viability [14] | cell viability [15] | cell viability [16] | cell viability [17] | cell viability [18] | cell viability [19] | cell viability [20] | cell viability [21] | cell viability [22] | cell viability [23] | cell viability [24] | cell viability [25] | cell viability [26] | cell viability [27] | cell viability [28] | cell viability [29] | cell viability [30] | cell viability [31] | cell viability [32] | cell viability [33]
C[C@]12C[C@H](O)[C@H]3[C@@H](CC\C4=C\C(=O)\C=C/[C@]34C)[C@@H]1CC[C@]2(O)C(=O)CO | 128% | 118% | 119% | 121% | 117% | 107% | 88.2% | 69.7% | 57.9% | 52% | 14% | – | – | – | – | – | – | – | – | – | – | – | – | – | – | – | – | – | – | – | – | – | –
CN1[C@@H]2CC[C@H]1CC(OC(=O)c1c[nH]c3ccccc13)C2 (stereo partly drawn) | 120% | 115% | 121% | 107% | 116% | 116% | 120% | 117% | 118% | 113% | 107% | 125% | 127% | 119% | 96.1% | 110% | 117% | 116% | 126% | 111% | 114% | 111% | – | – | – | – | – | – | – | – | – | – | –
CC1=NN(c2ccc(C)c(C)c2)C(=O)/C1=N/Nc1cccc(-c2cccc(C(=O)O)c2)c1O | – | – | – | – | – | – | – | – | – | – | – | 120% | 120% | 129% | 124% | 116% | 127% | 121% | 118% | 112% | 91.1% | 68.1% | – | – | – | – | – | – | – | – | – | – | –
C[C@]12CC[C@@H]3c4ccc(OC(=O)N(CCCl)CCCl)cc4CC[C@H]3[C@@H]1CC[C@@H]2OP(=O)([O-])[O-].[Na+].[Na+] | 107% | 116% | 117% | 82.8% | 117% | 105% | 106% | 111% | 96% | 104% | 88.1% | 118% | 115% | 113% | 94.4% | 121% | 117% | 105% | 111% | 113% | 110% | 26.6% | 115% | 118% | 117% | 89% | 5.78% | 123% | 118% | 117% | 106% | 98.7% | 119%
COc1ccc(Cc2ccc(NC(N)=O)cc2)cc1-c1cccc(Cl)c1 | 110% | 120% | 113% | 111% | 117% | 119% | 115% | 131% | 121% | 124% | 113% | 112% | 115% | 127% | 121% | 118% | 118% | 123% | 124% | 126% | 122% | 116% | 114% | 134% | 122% | 131% | 130% | 127% | 117% | 130% | 149% | 132% | 124%
C[C@H](NC(=O)/C(C#N)=C/c1cccc(Br)n1)c1ccccc1 | 111% | 109% | 113% | 111% | 109% | 126% | 121% | 79.2% | 9.86% | 7.21% | 6.61% | 107% | 113% | 112% | 121% | 119% | 122% | 120% | 45.1% | 7.82% | 7.53% | 7.45% | 112% | 119% | 112% | 111% | 118% | 125% | 131% | 88.3% | 9.63% | 6.78% | 6.3%
C[C@H](O)[C@H]1[C@@H]2[C@H](C)C(=C(\N2C1=O)C(O)=O)/S[C@@H]3CN[C@H](CN[S+](N)([O-])=O)C3 | – | – | – | – | – | – | – | – | – | – | – | 118% | 125% | 132% | 129% | 124% | 125% | 124% | 121% | 121% | 113% | 104% | 123% | 126% | 123% | 128% | 124% | 122% | 123% | 111% | 117% | 103% | 105%
CC(C)c1cnn2c(NCc3ccccc3)cc(N[C@@H](CO)[C@H](O)CO)nc12 | – | – | – | – | – | – | – | – | – | – | – | 121% | 128% | 124% | 127% | 129% | 127% | 120% | 35.4% | 8.12% | 5.35% | 4.01% | – | – | – | – | – | – | – | – | – | – | –
CN\1C(=O)/C(=C(\N=C1N2CCCC[S+]2([O-])=O)C(=O)NCC3=CC=C(F)C=C3)O | 124% | 116% | 119% | 126% | 127% | 117% | 123% | 120% | 99.7% | 109% | 102% | 124% | 123% | 115% | 113% | 118% | 122% | 119% | 111% | 107% | 109% | 103% | – | – | – | – | – | – | – | – | – | – | –
